Experimental data: patent US11253567B2, “Citrus seed extract-containing composition, food, drug, and method for producing citrus seed extract-containing composition” (Kikkoman Corporation, priority 2014, dated 2022)

Assays:
KKAy mice [1] = assay: Rearing experiment of KKAy mice: blood-glucose level; assay type: in vivo; details: Experiment 5, FIG. 11; 0.035 mass % in AIN-93G feed; pair feeding; day 28
Experimental: (§1) KKAy mice at 3 weeks of age were purchased from CLEA Japan, Inc. as diabetes onset mode mice, and experimentally reared after preliminary rearing for 7 days. Herein, the conditions of rearing the mice were as follows. […]
(§2) AIN-93G was used for base experimental feed. […]
(§3) Note, the Yuzu seed extract used in Experiment 1 was prepared by heat-drying the Yuzu seeds at 100° C. for 720 min, subsequently grinding the dried Yuzu seeds so that the particle size (i.e., diameter) became about 1 mm or less, and performing extraction at an ambient temperature for 10 min using 10-fold volume of 100% ethanol to the ground Yuzu seeds.
In each of a control group (i.e., administered with AIN-93G alone including no other materials), a Yuzu seed extract (1% mass %) added group, a pioglitazone (0.03 mass %) added group, 10 mice were preliminarily reared for 7 days, and subsequently reared with the experimental feed totally for 28 days.
After initiating the rearing experiment, blood was collected through a tail vain at the time from 9 am to 11 am at a day after the predetermined days passed. Then, the collected blood was analyzed by blood-glucose analyzers (HORIBA, Ltd. Antsence III and Bayer DCA2000) to measure a blood-glucose level and an HbA1c level. The measured blood-glucose and HbA1c levels were processed to calculate the mean value of each group. […]

KKAy mice [2] = assay: Rearing experiment of KKAy mice: HbA1c level; assay type: in vivo; details: Experiment 5, FIG. 12; 0.035 mass % in AIN-93G feed; pair feeding
Experimental: as §1, §2
as §3, with “seeds. […]” for “seeds.”
After initiating the rearing experiment, blood was collected through a tail vain at the time from 9 am to 11 am at a day after the predetermined days passed. Then, the collected blood was analyzed by blood-glucose analyzers (HORIBA, Ltd. Antsence III and Bayer DCA2000) to measure a blood-glucose level and an HbA1c level. The measured blood-glucose and HbA1c levels were processed to calculate the mean value of each group.
Note, all the HbA1c levels thus measured and calculated in the experiment are represented by the JDS values. […]

Compound: CC1(C)OC(=O)C=C[C@]2(C)[C@H]3CC[C@@]4(C)[C@H](c5ccoc5)OC(=O)[C@H]5O[C@]54[C@]3(C)C(=O)C[C@@H]12 [obacunone, Obacunone]
- blood-glucose level lower than that of the control group (difference) (KKAy mice [1]): about 50 mg/dl
- HbA1c levels compared to control group (KKAy mice [2]): lower than those of the control group
